Measurements taken from US10526388B2, “Peptide derived from GPC3, pharmaceutical composition for treatment or prevention of cancer using the same, immunity inducer, and method for producing antigen-presenting cells” (CYTLIMIC INC., priority 2015, dated 2020).
Ends that are not written are not given here.

Legend:
[1] = target: HLA-A*02:01 molecule (Homo sapiens, UniProt P04439, D140Y/D185E/D98H/E176V/E277Q/G131W/G231S/I119V/I121R/I166T/I218V/L300P/L318F/N151K/N90K/P208A/P217A/Q86G/Q94H/R138H/R169H/T345S); assay: Binding experiment of peptide to HLA-A*02:01 molecule (T2 cells, antibody BB7.2, flow cytometer); conditions: for Kd: T2 cells, 37° C. 4 hours, negative figures given (log of Kd value)
Experimental: The binding capacity of each peptide to the HLA-A*02:01 molecule as the product of HLA-A*02:01 gene was measured using a cell line, T2, (purchased from ATCC) expressing the HLA-A*02:01 molecule.
T2 cells and purified β2m were added to stepwise dilution series of a peptide whose binding capacity was to be measured, which was then incubated at 37° C. for 4 hours.
(§1) Thereafter, the amount of fluorescence per cell was measured using a flow cytometer, and the dissociation constant, Kd value, was calculated using a method as published in a paper by the present inventor (Udaka et al., Immunogenetics, 51, 816-828, 2000).

[2] = target: HLA-A*24:02 molecule (Homo sapiens, UniProt P04439, D101N/D140Y/D185E/E176V/E190D/F33S/G103R/G107R/I119L/I121M/I306V/K335N/L105A/L180Q/L300P/N151K/N90K/Q86E/Q94H/R106L/R138H/R89G/T104I/T345S/V100E/W191G/Y123F); assay: Binding experiment of peptide to HLA-A*24:02 molecule (C1R-A24 cells, antibody 17A12, FACScan); conditions: for Kd: C1R-A24 cells, on ice 4 hours, negative figures given (log of Kd value)
Experimental: The binding capacity of each peptide to the HLA-A*24:02 molecule as the product of HLA-A*24:02 gene was measured using C1R-A24 cells expressing the HLA-A*24:02 molecule (the cells prepared by Prof. Masafumi Takeguchi, Kumamoto University were gifted by Assoc. Prof. Masaki Yasukawa, Ehime University with permission).
First, C1R-A24 cells were exposed to acidic conditions of pH 3.3 for 30 seconds to dissociate and remove endogenous peptides which were originally bound to the HLA-A*24:02 molecule and a light chain, […], which was commonly associated with HLA class I molecules. After neutralization, purified β2m was added to the C1R-A24 cells, which was then added to peptide dilution series. The mixtures were each then incubated on ice for 4 hours. The 3-molecule assembly (MHC-pep) consisting of the HLA-A*24:02 molecule, the peptide, and β2 m which had been reasociated during the incubation was stained with a fluorescent labeled monoclonal antibody, 17A12, recognizing the assembly.
Subsequently, the number of MHC-pep's per C1R-A24 cell (which is proportional to the fluorescent intensity of the above fluorescent antibody) was quantitatively measured using a fluorescent cell analyzer, FACScan (Becton, Dickinson and Company). The binding dissociation constant, Kd value, between the HLA-A*24:02 molecule and the peptide was calculated from the average fluorescent intensity per cell using a method as published in a paper (Udaka et al., Immunogenetics, 51, 816-828, 2000) by the present inventor.

[3] = target: T1, HLA-A*02:06 molecule (Homo sapiens, UniProt P04439, D140Y/D185E/D98H/E176V/E277Q/F33Y/G131W/G231S/I119V/I121R/I166T/I218V/L300P/L318F/N151K/N90K/P208A/P217A/Q86G/Q94H/R138H/R169H/T345S); assay: Binding experiment of peptide to HLA-A*02:06 molecule (RA2.6 cells, antibody BB7.2, flow cytometer); conditions: for Kd: RA2.6 cells, 26° C. 60 minutes then 35° C. 4 hours, negative figures given (log of Kd value)
T1 construct: expressed in transfected cells; host or cells: RA2.6 cells (RMAS mouse TAP-deficient line carrying HLA-A*02:06 cDNA; prepared at Kochi University)
Experimental: The binding capacity of each peptide to the HLA-A*02:06 molecule as the product of HLA-A*02:06 gene was measured using RA2.6 cells (a cell line newly prepared at Kochi University) in which cDNA of the HLA-A*02:06 gene was introduced into RMAS as a mouse TAP (transporter associated with antigen processing)-deficient cell line.
First, the RA2.6 cells were cultured overnight at 26° C. to accumulate the HLA-A*02:06 molecules unbound to the peptide on the cell surface. Any of peptide dilution series was added thereto for binding at 26° C. for 60 minutes.
Subsequently, the mixture was cultured at 35° C. for 4 hours, resulting in the denaturation of the empty HLA-A*02:06 molecule unbound to the peptide and the loss of its steric structure. A fluorescent labeled monoclonal antibody, BB7.2, specifically recognizing a peptide-bound HLA-A*02:06 molecule, was added thereto, which was then incubated on ice for 20 minutes to stain the cells.
as §1

[4] = tested on: CD8T cells; assay: Immunity induction test of peptide (peptide-stimulated dendritic cells cocultured with CD8T cells, IFN-γ ELISPOT / ELISA); type: cell-based, human
Experimental: (1) Preparation of Peptide-stimulated Dendritic Cell
Of peripheral blood monocytes obtained by pheresis from the patient treated with HSP70 dendritic cell therapy, a cell fraction adhering to the culture flask was cultured in AIM-CM medium (trade name “Gibco” from Thermo Fisher Scientific Co., Ltd.) at 37° C. for 10 days. During culture, 15 μl of IL-4 and 30 μl of granulocyte-monocyte colony-stimulating factor (GM-CSF) were added to the medium at day 0 and day 3, and 15 μl of IL-4, 30 μl of GM-CSF, and 75 μl of tumor necrosis factor (TNF)-α were added at day 5.
The dendritic cells induced were newly recovered into AIM-CM medium, and the peptides of the present invention (SEQ ID NOS: 1 to 11) were each added to 20 μg/ml. […]
The dendritic cells were recovered, washed 3 times or more with a sufficient amount of AIM-CM medium, and counted. […]
Using CD8 Negative Selection Kit (from Miltenyi Biotec), CD8T cells were separated from the medium and counted. […]
A culture supernatant at day 7 after coculture of T cells with dendritic cells pulsed with each of the above peptides was diluted to the 4 levels of ×1, ×5, ×25, and ×125 to identify the dilution level falling within the limit of measurement using Human IFN-γ ELISA MAX Deluxe Set (from BioLegend Inc.). Thereafter, each sample was measured 3 times at the identified dilution level. […]

SALDINECL [SEQ ID NO: 3, SALDINECL]
Kd [1]: > 1000 µM
Kd [2]: > 1000 µM
Kd [3]: 0.483 µM

SLQVTRIFL [SEQ ID NO: 4, SLQVTRIFL]
Kd [1]: 0.616 µM
Kd [2]: 4.61 µM
Kd [3]: 6.11 µM

GYICSHSPV [SEQ ID NO: 6, GYICSHSPV]
Kd [1]: > 1000 µM
Kd [2]: 0.283 µM
Kd [3]: > 1000 µM

MVNELFDSL [SEQ ID NO: 1, MVNELFDSL]
Kd [1]: 4.94 µM
Kd [2]: 20 µM
Kd [3]: 0.724 µM

ARLNMEQLL [SEQ ID NO: 11, ARLNMEQLL]
Kd [1]: 144 µM
Kd [2]: 6.26 µM
Kd [3]: 1720 µM

GMIKVKNQL [SEQ ID NO: 10, GMIKVKNQL]
Kd [1]: 17.5 µM
Kd [2]: 0.125 µM
Kd [3]: 439 µM

LFDSLFPVI [SEQ ID NO: 2, LFDSLFPVI]
Kd [1]: 8.61 µM
Kd [2]: 0.0374 µM
Kd [3]: > 1000 µM

SLTPQAFEF [SEQ ID NO: 5, SLTPQAFEF]
Kd [1]: 11.9 µM
Kd [2]: 0.077 µM
Kd [3]: 30.5 µM

KLTTTIGKL [SEQ ID NO: 9, KLTTTIGKL]
Kd [1]: 10.7 µM
Kd [2]: 6.14 µM
Kd [3]: 9.25 µM

ALNLGIEVI [SEQ ID NO: 7, ALNLGIEVI]
binding to HLA-A*02:01 molecule (in words) [1]: strongly binds
Kd [1]: 1.21 µM
binding to HLA-A*24:02 molecule (in words) [2]: strongly binds
Kd [2]: 111 µM
binding to HLA-A*02:06 molecule (in words) [3]: strongly binds
Kd [3]: 69 µM
immunogenicity (in words) [4]: high immunogenicity

LLQSASMEL [SEQ ID NO: 8, LLQSASMEL]
Kd [1]: 0.73 µM
Kd [2]: 3.25 µM
Kd [3]: 1.33 µM
